Structures are written as SMILES.

The first series concerns ddy strain of male mice. In words: Acute toxicity (oral, 7 days observation). The format is in vivo. As to conditions: 500 mg/kg, oral, mice, 7 days. The procedure:
(§1) Next, several tests for determining the pharmacological properties, in that acute toxicity, anti-pyretic activity, analgesic activity and anti-inflammatory activity of the present 1,1,3,5-substituted biuret compounds of the formula (1) were conducted and the test results are shown in Table (2). In the tests, each compounds to be tested was used as a suspension in 0.25% carboxymethylcellulose solution. Methods for testing are explained as follows:
The ddy strain of male mice (body weight, 20-25 g) were used as test animals. The mice were fasted overnight and the compound to be tested was administered orally. […] The lethal dose (mg/kg, body weight) of the test compound was determined in connection with the death number of mice/the number of mice tested. In Table 2, the values indicated with Δ marks are 50% lethal dose, LD50 (mg/kg, body weight).
Turning to `COc1cc(NC(=O)N(C)C(=O)N(C)C)cc(OC)c1OC` [Compound No. 19, 1,1,3-Trimethyl-5-(3,4,5-trimethoxyphenyl)biuret], the “Acute toxicity, death number of mice/number of mice tested” value is 0/4.

The same series, now with this note: 1000 mg/kg, oral, mice, 7 days.
For the compound `CN(C)C(=O)N(C)C(=O)Nc1ccccc1F` [Compound No. 2, 1,1,3-Trimethyl-5-(2-fluorophenyl)biuret], the “Acute toxicity, death number of mice/number of mice tested” value is reported as 1/4.

On to `COc1cc(NC(=O)N(C)C(=O)N(C)C)cc(OC)c1OC` [Compound No. 19, 1,1,3-Trimethyl-5-(3,4,5-trimethoxyphenyl)biuret], for which the “Acute toxicity, death number of mice/number of mice tested” value was 2/4.

On to `CCCN(C)C(=O)N(C)C(=O)Nc1ccccc1` [Compound No. 34, 1,3-dimethyl-1-propyl-5-phenylbiuret], for which the “Acute toxicity, death number of mice/number of mice tested” value is 1/4.

As to `CN(C)C(=O)N(C)C(=O)Nc1ccc(Cl)cc1Cl` [compound 8, 1,1,3-Trimethyl-5-(2,4-dichlorophenyl)biruet], the “Acute toxicity, death number of mice/number of mice tested” value is reported as 0/4.

`CN(C)C(=O)N(C)C(=O)Nc1ccc(Cl)c(Cl)c1` [compound 10, 1,1,3-Trimethyl-5-(3,4-dichlorophenyl)biuret]: the “Acute toxicity, death number of mice/number of mice tested” value is reported as 1/4.

Turning to `COc1ccc(NC(=O)N(C)C(=O)N(C)C)cc1OC` [compound 18, 1,1,3-Trimethyl-5-(3,4-dimethoxyphenyl)biuret], the “Acute toxicity, death number of mice/number of mice tested” value is 0/4.

Take `Cc1cccc(NC(=O)N(C)C(=O)N(C)C)c1C` [compound 23, 1,1,3-Trimethyl-5-(2,3-dimethylphenyl)biuret]: the “Acute toxicity, death number of mice/number of mice tested” value is reported as 1/4.

The same series, now with this note: 2000 mg/kg, oral, mice, 7 days.
Consider `CN(C)C(=O)N(C)C(=O)Nc1ccccc1F` [Compound No. 2, 1,1,3-Trimethyl-5-(2-fluorophenyl)biuret], for which the “Acute toxicity, death number of mice/number of mice tested” value is given as 4/4.

In the case of `CCCN(C)C(=O)N(C)C(=O)Nc1ccccc1` [Compound No. 34, 1,3-dimethyl-1-propyl-5-phenylbiuret], the “Acute toxicity, death number of mice/number of mice tested” value is 4/4.

For `CN(C)C(=O)N(C)C(=O)Nc1ccc(Cl)cc1Cl` [compound 8, 1,1,3-Trimethyl-5-(2,4-dichlorophenyl)biruet], the “Acute toxicity, death number of mice/number of mice tested” value is reported as 3/4.

As for `CN(C)C(=O)N(C)C(=O)Nc1ccc(Cl)c(Cl)c1` [compound 10, 1,1,3-Trimethyl-5-(3,4-dichlorophenyl)biuret], the “Acute toxicity, death number of mice/number of mice tested” value was 3/4.

`COc1ccc(NC(=O)N(C)C(=O)N(C)C)cc1OC` [compound 18, 1,1,3-Trimethyl-5-(3,4-dimethoxyphenyl)biuret]: the “Acute toxicity, death number of mice/number of mice tested” value is 4/4.

For the compound `Cc1cccc(NC(=O)N(C)C(=O)N(C)C)c1C` [compound 23, 1,1,3-Trimethyl-5-(2,3-dimethylphenyl)biuret], the “Acute toxicity, death number of mice/number of mice tested” value is reported as 4/4.

The next series deals with Wistar strain of male rats. In words: Anti-pyretic activity (dry-yeast induced fever). The class given is in vivo, rat (Wistar strain. The following applies: oral, up to 4 hours after administration, dose not given. The procedure: as §1
According to the method reported by Tanabe [Folia Pharmacologia Japonica, Vol. 73, pp. 803 (1977)], the Wistar strain of male rats (150-180 g body weight) were used as test animals. The rats were fasted overnight, and 1 ml/100 g (body weight) of 10% dry-yeast suspension were subcutaneously injected on the back of the rats. Five hours after the injection, the test compound was administered orally, then the body temperature of the rat was measured at time sequences. Anti-pyretic activity of the test compound was determined as the FI (febril index) by integrating pyrogenetic curve up to 4 hours after the administration of the test compound with time, and indicated as inhibitory ratio (%) shown by the following formula, [formula]
In the case of `CN(C)C(=O)N(C)C(=O)Nc1ccccc1F` [Compound No. 2, 1,1,3-Trimethyl-5-(2-fluorophenyl)biuret], the “Anti-pyretic activity, inhibitory ratio of febril index (FI)” value is on record as 76%.

As for `COc1cc(NC(=O)N(C)C(=O)N(C)C)cc(OC)c1OC` [Compound No. 19, 1,1,3-Trimethyl-5-(3,4,5-trimethoxyphenyl)biuret], the “Anti-pyretic activity, inhibitory ratio of febril index (FI)” value was found to be 23%.

On to `CCCN(C)C(=O)N(C)C(=O)Nc1ccccc1` [Compound No. 34, 1,3-dimethyl-1-propyl-5-phenylbiuret], for which the “Anti-pyretic activity, inhibitory ratio of febril index (FI)” value was determined as 44%.

Take `CN(C)C(=O)N(C)C(=O)Nc1ccc(Cl)cc1Cl` [compound 8, 1,1,3-Trimethyl-5-(2,4-dichlorophenyl)biruet]: the “Anti-pyretic activity, inhibitory ratio of febril index (FI)” value is reported as 42%.

With `CN(C)C(=O)N(C)C(=O)Nc1ccc(Cl)c(Cl)c1` [compound 10, 1,1,3-Trimethyl-5-(3,4-dichlorophenyl)biuret], the “Anti-pyretic activity, inhibitory ratio of febril index (FI)” value stood at 43%.

Consider `COc1ccc(NC(=O)N(C)C(=O)N(C)C)cc1OC` [compound 18, 1,1,3-Trimethyl-5-(3,4-dimethoxyphenyl)biuret], for which the “Anti-pyretic activity, inhibitory ratio of febril index (FI)” value worked out at 18%.

As to `Cc1cccc(NC(=O)N(C)C(=O)N(C)C)c1C` [compound 23, 1,1,3-Trimethyl-5-(2,3-dimethylphenyl)biuret], the “Anti-pyretic activity, inhibitory ratio of febril index (FI)” value amounted to 40%.

For a further series, the system named is ddy strain of male mice. The series is described as follows: Analgesic activity, acetic acid-induced stretching method. The format is in vivo, mouse (ddy strain. The following applies: Mus musculus, po, read-out: Analgesic activity, acetic acid-induced stretching method, inhibitory ratio. The procedure: as §1
According to the method reported by Koster et al., [Fed. Proc., Vol. 18, pp. 412 (1959)], the ddy strain of male mice (body weight, 20-25 g) were used as test animals. The mice were fasted overnight, 100 mg/kg body weight of the test compound was administered orally, then 1 hour after the administration, 0.2 ml of 0.7% acetic acid solution was injected intraperitoneally. The acetic acid-induced stretching symptom of mouse was observed. Analgesic activity of the test compound was calculated as the inhibitory ratio (%). In Table 2, the values in Parentheses show the data obtained from the test by using the dosage other than 100 mg/kg body weight. Further, the values indicated with Δ marks show 50% effective dose, ED50 (mg/kg body weight).
`CN(C)C(=O)N(C)C(=O)Nc1ccccc1F` [Compound No. 2, 1,1,3-Trimethyl-5-(2-fluorophenyl)biuret]: the inhibition in vivo at 100 mg/kg is 62.5%.

With `CCCN(C)C(=O)N(C)C(=O)Nc1ccccc1` [Compound No. 34, 1,3-dimethyl-1-propyl-5-phenylbiuret], the inhibition in vivo at 60 mg/kg is 75%.

Turning to `CN(C)C(=O)N(C)C(=O)Nc1ccc(Cl)cc1Cl` [compound 8, 1,1,3-Trimethyl-5-(2,4-dichlorophenyl)biruet], the inhibition in vivo at 100 mg/kg was found to be 50%.

For the compound `CN(C)C(=O)N(C)C(=O)Nc1ccc(Cl)c(Cl)c1` [compound 10, 1,1,3-Trimethyl-5-(3,4-dichlorophenyl)biuret], the inhibition in vivo at 100 mg/kg stood at 50%.

As to `COc1ccc(NC(=O)N(C)C(=O)N(C)C)cc1OC` [compound 18, 1,1,3-Trimethyl-5-(3,4-dimethoxyphenyl)biuret], the inhibition in vivo at 100 mg/kg was 75%.

The series is the same for the next values; noted with them: Mus musculus; 100 mg/kg oral, mice; read-out: Analgesic activity, acetic acid-induced stretching method, inhibitory ratio.
`Cc1cccc(NC(=O)N(C)C(=O)N(C)C)c1C` [compound 23, 1,1,3-Trimethyl-5-(2,3-dimethylphenyl)biuret]: the inhibition in vivo at 100 mg/kg turned out to be 50%.

The same series, now with this note: Mus musculus; oral, mice; range in parentheses; read-out: Analgesic activity, acetic acid-induced stretching method, 50% effective dose, ED50 (values with Δ marks).
On to `COc1cc(NC(=O)N(C)C(=O)N(C)C)cc(OC)c1OC` [Compound No. 19, 1,1,3-Trimethyl-5-(3,4,5-trimethoxyphenyl)biuret], for which the ED50 (usually the midpoint of the dose-response relation) was 38 mg/kg.

The test system of the next series is ddy strain of male mice. The series is described as follows: Analgesic activity, Haffner method. As to conditions: 100 mg/kg oral, with threshold morphine hydrochloride s.c. The class given is in vivo, mouse (ddy strain. The procedure:
as §1
According to the modified method reported by Fujimura et al., [Bulletin of the Institute for Chemical Research, Kyoto University, No. 25, pp. 36 (1951)], the ddy strain of male mice (body weight, 20-25 g) were used as test animals. The mice were fasted overnight, 100 mg/kg body weight of the test compound was administered orally, then 45 minutes after the administration, the threshold amount (1.5-2.5 mg/kg body weight) of morphine hydrochloride was injected subcutaneously. Then 1-hour pain reaction of the mouse caused by a clamp was observed. Analgesic activity of the test compound was calculated as the inhibitory ratio (%). In Table 2, the values in parentheses show the data obtained from the test by using the dosage other than 100 mg/kg body weight. Further, the values indicated with Δ marks show 50% effective dose, ED50 (mg/kg body weight).
In the case of `CN(C)C(=O)N(C)C(=O)Nc1ccccc1F` [Compound No. 2, 1,1,3-Trimethyl-5-(2-fluorophenyl)biuret], the “Analgesic activity, Haffner method, inhibitory ratio” value was 75%.

Take `COc1cc(NC(=O)N(C)C(=O)N(C)C)cc(OC)c1OC` [Compound No. 19, 1,1,3-Trimethyl-5-(3,4,5-trimethoxyphenyl)biuret]: the “Analgesic activity, Haffner method, inhibitory ratio” value worked out at 62.5%.

As for `CCCN(C)C(=O)N(C)C(=O)Nc1ccccc1` [Compound No. 34, 1,3-dimethyl-1-propyl-5-phenylbiuret], the “Analgesic activity, Haffner method, inhibitory ratio” value is listed as 37.5%.

Turning to `CN(C)C(=O)N(C)C(=O)Nc1ccc(Cl)cc1Cl` [compound 8, 1,1,3-Trimethyl-5-(2,4-dichlorophenyl)biruet], the “Analgesic activity, Haffner method, inhibitory ratio” value is 75%.

Regarding `CN(C)C(=O)N(C)C(=O)Nc1ccc(Cl)c(Cl)c1` [compound 10, 1,1,3-Trimethyl-5-(3,4-dichlorophenyl)biuret], the “Analgesic activity, Haffner method, inhibitory ratio” value is given as 62.5%.

Take `COc1ccc(NC(=O)N(C)C(=O)N(C)C)cc1OC` [compound 18, 1,1,3-Trimethyl-5-(3,4-dimethoxyphenyl)biuret]: the “Analgesic activity, Haffner method, inhibitory ratio” value worked out at 62.5%.

In the case of `Cc1cccc(NC(=O)N(C)C(=O)N(C)C)c1C` [compound 23, 1,1,3-Trimethyl-5-(2,3-dimethylphenyl)biuret], the “Analgesic activity, Haffner method, inhibitory ratio” value is 25%.

The next series deals with Wistar strain of male rats. The series is described as follows: Anti-inflammatory activity, acute carrageenin-induced inflammatory test. The format is in vivo, rat (Wistar strain. The following applies: Rattus norvegicus, po, 2 h, read-out: Anti-inflammatory activity, inflammation inhibitory ratio (2 hours value). The procedure:
as §1
According to the method of acute carrageenin-induced inflammatory test [Folia Pharmacologia Japonica, Vol. 56, pp. 575 (1960)], the Wistar strain of male rats (body weight, 150-180 g) were used as test animals. The rats were fasted overnight, 100 mg/kg body weight of the test compound was administered orally, then 1 hour after the administration, 0.1 ml of 1% carrageenin solution, as the inflammation inducing agent, was injected subcutaneously to the hindpaw of the rat and the volume of the hindpaw was measured at time sequences. Anti-inflammatory activity of the test compound was calculated as inflammation inhibitory ratio (%) at 3 hours after the injection of the inflammation inducing agent.
For `CCCN(C)C(=O)N(C)C(=O)Nc1ccccc1` [Compound No. 34, 1,3-dimethyl-1-propyl-5-phenylbiuret], the inhibition in vivo at 100 mg/kg was 26%.

Staying with this series, now noted: Rattus norvegicus, po, 3 h, read-out: Anti-inflammatory activity, inflammation inhibitory ratio.
Consider `COc1cc(NC(=O)N(C)C(=O)N(C)C)cc(OC)c1OC` [Compound No. 19, 1,1,3-Trimethyl-5-(3,4,5-trimethoxyphenyl)biuret], for which the inhibition in vivo at 100 mg/kg was found to be 30%.

The same series, now with this note: Rattus norvegicus; 100 mg/kg oral, rats, 3 hours after carrageenin; read-out: Anti-inflammatory activity, inflammation inhibitory ratio.
As to `CN(C)C(=O)N(C)C(=O)Nc1ccccc1F` [Compound No. 2, 1,1,3-Trimethyl-5-(2-fluorophenyl)biuret], the inhibition in vivo at 100 mg/kg was 63%.

The values are drawn from patent US4293713A, “Novel 1,1,3,5-substituted biuret compound and a pharmaceutical composition containing the same” (priority 1979, dated 1981).
